Assays:
KYSE-30 cells = assay: Cancer cell line proliferation assay, ATP-based cell viability (Cell Titre Glow), KYSE-30 (normal CCNE1); settings: Homo sapiens, KYSE-30 cells (normal CCNE1), concentration that achieves 50% cell growth proliferation inhibition, read-out: KYSE30 Gl50
Protocol: (§1) Cancer cell lines with either normal (KYSE-30) or amplified CCNE1 expression (OVCAR 3 —ovarian cancer) were evaluated for their sensitivity to PKMYT1 inhibitors using Cell Titre Glow assay (Promega G7573) as endpoint to assess cell proliferation. The luminescence signal was read on a PHERAStar FS microplate reader (BMG Labtech). Data analysis was performed using Microsoft Excel® and Gl50 (concentration that achieves 50% cell growth proliferation inhibition) estimates generated with GraphPad Prism v9.

OVCAR 3 cells = assay: Cancer cell line proliferation assay, ATP-based cell viability (Cell Titre Glow), OVCAR 3 (CCNE1-amplified); settings: KYSE30 (normal CCNE1) GI50 vs. OVCAR 3 (CCNE1-amplified) GI50
Protocol: as §1

WEE1 = molecular target: T1, WEE1 (Homo sapiens, UniProt P30291); assay: Selectivity versus WEE1 assay (ADP-Glo enzymatic assay); type: biochemical; settings: for IC50: ADP-Glo; for PKMYT1 vs. WEE1 selectivity: fold difference in selectivity for PKMYT1 over WEE1
T1 construct: purchased Thermo Fisher PR7373A
Method in brief: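 15 nM WEE1, 30 µM ATP, 50 mM HEPES pH 7.5, 10 mM MgCl2, 1 mM EGTA, 0.01% Brij-35, 1% DMSO; 60 min, 26° C; ADP-Glo luminescence; IC50 from curve fit, replicates within 3-fold, r2 >0.9.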

Human PKMYT1 = molecular target: T2, Human PKMYT1 (Homo sapiens, UniProt Q99640); assay: PKMYT1 biochemical ADP-Glo enzymatic assay; settings: ADP-Glo
T2 construct: Human PKMYT1 75-362 was cloned as a TEV cleavable 6xHis fusion; 6xHis (TEV cleavable) (cleaved yes); made in house; host or cells: bacterial cells
T2 sequence (Q99640 75-362): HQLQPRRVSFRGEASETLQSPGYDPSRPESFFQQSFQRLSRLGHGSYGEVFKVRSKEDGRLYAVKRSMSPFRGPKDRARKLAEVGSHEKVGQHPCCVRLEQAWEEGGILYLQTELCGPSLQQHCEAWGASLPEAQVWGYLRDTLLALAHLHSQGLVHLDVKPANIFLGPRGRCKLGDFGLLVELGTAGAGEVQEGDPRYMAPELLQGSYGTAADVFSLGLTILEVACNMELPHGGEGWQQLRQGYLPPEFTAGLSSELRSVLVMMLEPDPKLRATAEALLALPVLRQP
Method in brief: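 PKMYT1 75-362 (His-cleaved, bacterial) 15 nM; ATP 500 µM; HEPES pH 7.5, MgCl2, EGTA, Brij-35, 1% DMSO; 60 min, 26 °C; ADP-Glo Max luminescence; 10-pt 3-fold titration → IC50; replicates within 3-fold, r2 >0.9.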

[1] = 15 nM WEE1, 60 minutes at 26° C., banded
[2] = banded, ">N" = at least in this band but could be higher
[3] = 15 nM PKMYT1 kinase domain, 500 µM ATP, 60 minutes at 26° C., banded
[4] = PKMYT1 kinase domain 15 nM, banded values

T1 sequence (P30291 whole entry): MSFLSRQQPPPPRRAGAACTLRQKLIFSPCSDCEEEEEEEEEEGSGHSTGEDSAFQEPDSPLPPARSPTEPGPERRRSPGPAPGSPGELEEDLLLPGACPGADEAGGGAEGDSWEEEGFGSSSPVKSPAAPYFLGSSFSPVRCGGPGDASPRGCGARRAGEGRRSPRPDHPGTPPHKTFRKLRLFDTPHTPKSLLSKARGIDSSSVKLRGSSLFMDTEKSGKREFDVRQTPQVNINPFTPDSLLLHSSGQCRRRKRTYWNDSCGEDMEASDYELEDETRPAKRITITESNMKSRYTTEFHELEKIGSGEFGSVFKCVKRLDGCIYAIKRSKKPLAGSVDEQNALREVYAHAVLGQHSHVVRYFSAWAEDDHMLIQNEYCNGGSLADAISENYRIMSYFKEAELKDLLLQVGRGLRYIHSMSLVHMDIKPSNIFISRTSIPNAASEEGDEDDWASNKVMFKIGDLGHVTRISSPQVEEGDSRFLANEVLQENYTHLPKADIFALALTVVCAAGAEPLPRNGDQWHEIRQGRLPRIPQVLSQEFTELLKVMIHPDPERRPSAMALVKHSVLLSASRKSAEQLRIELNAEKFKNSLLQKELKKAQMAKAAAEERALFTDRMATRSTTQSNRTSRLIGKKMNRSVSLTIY

| IC50 (WEE1; [1]) [µM] | PKMYT1 vs. WEE1 selectivity (WEE1; [2]) | IC50 (Human PKMYT1; [3]) [µM] | IC50 (WEE1; WEE1 15 nM, banded values) [µM] | PKMYT1 vs. WEE1 selectivity (WEE1; banded) | IC50 (Human PKMYT1; [4]) [µM] | SMILES | GI50 (KYSE-30 cells) [µM] | Selectivity ratio KYSE30 Gl50 vs. OVCAR3 Gl50 (OVCAR 3 cells) |
| --- | --- | --- | --- | --- | --- | --- | --- | --- |
| 1 to 11 | X (100-<1000 fold) | < 0.05 |  |  |  | Cc1cn(-c2scnc2C)nc1Nc1ncc(C(=O)Nc2c(C)ccc(O)c2C)s1 [BAA-386, N-(3-hydroxy-2,6-dimethylphenyl)-2-((4-methyl-1-(4-methylthiazol-5-yl)-1H-pyrazol-3-yl)amino)thiazole-5-carboxamide] | > 5 | Y (>20 fold) |
| 1 to 11 | X (100-<1000 fold) | < 0.05 |  |  |  | Cc1cn(-c2cn(C)nc2C)nc1Nc1ncc(C(=O)Nc2c(C)ccc(O)c2C)s1 [BAA-392, N-(3-hydroxy-2,6-dimethylphenyl)-2-((1′, 3′,4-trimethyl-1′H-[1,4′-bipyrazol]-3-yl)amino)thiazole-5-carboxamide] | > 5 | Y (>20 fold) |
|  |  |  | > 11 | X (100-<1000 fold) | 0.05 to 1 | Cc1cn(-c2ncc(C(=O)Nc3c(C)ccc(O)c3C)s2)nc1Nc1ncc(C(=O)Nc2c(C)ccc(O)c2C)s1 [BAA-393, N-(3-hydroxy-2,6-dimethylphenyl)-2-((1-(5-((3-hydroxy-2,6-dimethylphenyl)carbamoyl)thiazol-2-yl)-4-methyl-1H-pyrazol-3-yl)amino)thiazole-5-carboxamide] | 0.5 to 5 | X (3-20 fold) |
|  |  |  | 1 to 11 | X (100-<1000 fold) | < 0.05 | Cc1ccc(O)c(C)c1NC(=O)c1cnc(Nc2cccc(-c3cnn(C(F)F)c3)n2)s1 [BAA-399, 2-((6-(1-(difluoromethyl)-1H-pyrazol-4-yl)pyridin-2-yl)amino)-N-(3-hydroxy-2,6-dimethylphenyl)thiazole-5-carboxamide] | 0.5 to 5 | Y (>20 fold) |
|  |  |  | 0.05 to 1 | W (10-<100 fold) | < 0.05 | Cc1ccc(O)c(C)c1NC(=O)c1cnc(Nc2cccc(-c3ncccn3)n2)s1 [BAA-403, N-(3-hydroxy-2,6-dimethylphenyl)-2-((6-(pyrimidin-2-yl)pyridin-2-yl)amino)thiazole-5-carboxamide] | > 5 | Y (>20 fold) |
|  |  |  | 1 to 11 | X (100-<1000 fold) | < 0.05 | COc1cccc(Nc2ncc(C(=O)Nc3c(C)ccc(O)c3C)s2)n1 [BAA-416, N-(3-hydroxy-2,6-dimethylphenyl)-2-((6-methoxypyridin-2-yl)amino)thiazole-5-carboxamide] | 0.5 to 5 | Y (>20 fold) |
|  |  |  | > 11 | X (100-<1000 fold) | < 0.05 | Cc1ccc(O)c(C)c1NC(=O)c1cnc(Nc2cccc(OC(C)C)n2)s1 [BAA-429, N-(3-hydroxy-2,6-dimethylphenyl)-2-((6-isopropoxypyridin-2-yl)amino)thiazole-5-carboxamide] | < 0.5 | Y (>20 fold) |
|  |  |  | 1 to 11 | X (100-<1000 fold) | < 0.05 | Cc1ccc(O)c(C)c1NC(=O)c1cnc(Nc2ncnc3sccc23)s1 [BAA-447, N-(3-hydroxy-2,6-dimethylphenyl)-2-(thieno[2,3-d]pyrimidin-4-ylamino)thiazole-5-carboxamide] | > 5 | Y (>20 fold) |

Further lines, the compound ahead of its results:

| SMILES | IC50 (WEE1; [1]) [µM] | PKMYT1 vs. WEE1 selectivity (WEE1; [2]) | IC50 (Human PKMYT1; [3]) [µM] | IC50 (WEE1; WEE1 15 nM, banded values) [µM] | PKMYT1 vs. WEE1 selectivity (WEE1; banded) | IC50 (Human PKMYT1; [4]) [µM] | GI50 (KYSE-30 cells) [µM] | Selectivity ratio KYSE30 Gl50 vs. OVCAR3 Gl50 (OVCAR 3 cells) |
| --- | --- | --- | --- | --- | --- | --- | --- | --- |
| C=CC(=O)Nc1ccc(C)c(Nc2ncc(C(=O)Nc3c(C)ccc(O)c3C)s2)n1 [BAA-341, 2-((6-Acrylamido-3-methylpyridin-2-yl)amino)-N-(3-hydroxy-2,6-dimethylphenyl)thiazole-5-carboxamide] | 1 to 11 | X (100-<1000 fold) | < 0.05 |  |  |  | 0.5 to 5 | X (3-20 fold) |
| Cc1cn(-c2ccc(C(F)(F)F)nc2)nc1Nc1ncc(C(=O)Nc2c(C)ccc(O)c2C)s1 [BAA-367, N-(3-hydroxy-2,6-dimethylphenyl)-2-((4-methyl-1-(6-(trifluoromethyl)pyridin-3-yl)-1H-pyrazol-3-yl)amino)thiazole-5-carboxamide] | > 11 | X (100-<1000 fold) | 0.05 to 1 |  |  |  | > 5 | Y (>20 fold) |
| Cc1cn(-c2cccc(F)c2)nc1Nc1ncc(C(=O)Nc2c(C)ccc(O)c2C)s1 [BAA-368, 2-((1-(3-fluorophenyl)-4-methyl-1H-pyrazol-3-yl)amino)-N-(3-hydroxy-2,6-dimethylphenyl)thiazole-5-carboxamide] | > 11 | Y (1000-5000 fold) | < 0.05 |  |  |  | > 5 | Y (>20 fold) |
| CCOc1ccc(-n2cc(C)c(Nc3ncc(C(=O)Nc4c(C)ccc(O)c4C)s3)n2)cn1 [BAA-369, 2-((1-(6-ethoxypyridin-3-yl)-4-methyl-1H-pyrazol-3-yl)amino)-N-(3-hydroxy-2,6-dimethylphenyl)thiazole-5-carboxamide] | > 11 | X (100-<1000 fold) | 0.05 to 1 |  |  |  | > 5 | Y (>20 fold) |
| Cc1cn(-c2cccc(C(F)(F)F)c2)nc1Nc1ncc(C(=O)Nc2c(C)ccc(O)c2C)s1 [BAA-370, N-(3-hydroxy-2,6-dimethylphenyl)-2-((4-methyl-1-(3-(trifluoromethyl)phenyl)-1H-pyrazol-3-yl)amino)thiazole-5-carboxamide] | > 11 | X (100-<1000 fold) | < 0.05 |  |  |  | 0.5 to 5 | X (3-20 fold) |
| Cc1cn(-c2cccnc2)nc1Nc1ncc(C(=O)Nc2c(C)ccc(O)c2C)s1 [BAA-371, N-(3-hydroxy-2,6-dimethylphenyl)-2-((4-methyl-1-(pyridin-3-yl)-1H-pyrazol-3-yl)amino)thiazole-5-carboxamide] | 1 to 11 | X (100-<1000 fold) | < 0.05 |  |  |  | > 5 | Y (>20 fold) |
| Cc1cn(-c2ccncc2)nc1Nc1ncc(C(=O)Nc2c(C)ccc(O)c2C)s1 [BAA-372, N-(3-hydroxy-2,6-dimethylphenyl)-2-((4-methyl-1-(pyridin-4-yl)-1H-pyrazol-3-yl)amino)thiazole-5-carboxamide] | 0.05 to 1 | W (10-<100 fold) | < 0.05 |  |  |  | > 5 | Y (>20 fold) |
| Cc1cn(-c2ccc(Cl)cn2)nc1Nc1ncc(C(=O)Nc2c(C)ccc(O)c2C)s1 [BAA-376, 2-((1-(5-Chloropyridin-2-yl)-4-methyl-1H-pyrazol-3-yl)amino)-N-(3-hydroxy-2,6-dimethylphenyl)thiazole-5-carboxamide] | > 11 | X (100-<1000 fold) | 0.05 to 1 |  |  |  | 0.5 to 5 | Y (>20 fold) |
| Cc1cn(-c2cc(Cl)cnc2F)nc1Nc1ncc(C(=O)Nc2c(C)ccc(O)c2C)s1 [BAA-377, 2-((1-(5-chloro-2-fluoropyridin-3-yl)-4-methyl-1H-pyrazol-3-yl)amino)-N-(3-hydroxy-2,6-dimethylphenyl)thiazole-5-carboxamide] | 1 to 11 | W (10-<100 fold) | 0.05 to 1 |  |  |  | 0.5 to 5 | X (3-20 fold) |
| Cc1cn(-c2cnc(Cl)cc2Br)nc1Nc1ncc(C(=O)Nc2c(C)ccc(O)c2C)s1 [BAA-378] | 1 to 11 | W (10-<100 fold) | 0.05 to 1 |  |  |  | 0.5 to 5 | X (3-20 fold) |
| Cc1ccc(O)c(C)c1NC(=O)c1cnc(Nc2nn(-c3ccccn3)cc2Cl)s1 [BAA-383, 2-((4-chloro-1-(pyridin-2-yl)-1H-pyrazol-3-yl)amino)-N-(3-hydroxy-2,6-dimethylphenyl) thiazole-5-carboxamide] | > 11 | Y (1000-5000 fold) | < 0.05 |  |  |  | 0.5 to 5 | X (3-20 fold) |

— US20260297042A1, “BIARYLAMIDE DERIVATIVES AND THEIR USE AS PKMYT1 INHIBITORS” (CANCER RESEARCH TECHNOLOGY LIMITED, priority 2023, published 2026)
